Experimental data as given in patent US20260174856A1, “USE OF HETEROARYLOXYNAPHTHALENE COMPOUND” (SHANGHAI RUNSHI MEDICAL TECHNOLOGY CO., LTD, priority 2022, published 2026).
Each block holds one molecule with its values, some of them ahead of it.

Key:
[1] = Solubility experiment; settings: for Solubility: deionized water, 25° C.
[2] = Water sorption and desorption experiment (DVS hygroscopicity); format: physicochemical; settings: relative humidity 40%-80%, 25° C.
Procedure: Instrument: DVS Intrinsic Plus (SMS, UK).
Method: a sample was placed in a tared sample basket, the weight of the sample was automatically measured, and the sample was analyzed according to the parameters in the table below.
The samples obtained in Example 2 and Example 3 were investigated for sorption and desorption of moisture under the relative humidity of 40%-80% at 25° C. using a dynamic vapor sorption (DVS) instrument to determine the hygroscopicity of various salt forms.

[3] = Grinding stability experiment; format: physicochemical; settings: XRPD
[4] = system: pulmonary squamous cell carcinoma; test: Phase I clinical trial, effectiveness evaluation; format: in vivo, human
Text: (§1) Drug: Compound B, tablets.
(§2) 1.1 Inclusion criteria: The main criteria include: (1) an age of 18-70 years old (including 18 years old and 70 years old) when signing an informed consent form; (2) patients with histopathologically or cytologically confirmed unresectable locally advanced or metastatic solid tumors, who have failed or are intolerant to standard treatments, or have no standard treatment regimens available as options; (3) the presence of at least one measurable lesion meeting RECIST v1.1 definition; (4) ECOG performance status (PS) score: 0-1; and so on.
(§3) (1) Dose escalation stage: initial doses: 1 mg, 2 mg, 4 mg, 6 mg, 9 mg, 12 mg, 16 mg, 20 mg, and 25 mg, administered orally once daily. After 7-days single administration stage, 28-days multiple administration stage began (continuous administration, with every 28 days constituting one cycle, until progressive disease or intolerable toxic reactions occurred). The subjects who had completed the treatment and observation for the 7-days single administration stage and the first cycle of the 28-days multiple administration stage, and who had acquired clinical benefit and could tolerate the drug treatment, could enter an extended treatment period based on their willingness. In the extended treatment period, every 4 weeks constituted one cycle.
(§4) (2) Dose expansion stage: 4 mg and 6 mg, administered orally once daily. For the continuous administration group, every 4 weeks constituted 1 cycle; for the group of 3-week administration and then 1-week interruption, every 4 weeks constituted one cycle; for the group of 2-week administration and then 1-week interruption, every 3 weeks constituted 1 cycle.
(§5) 1.3 Assessment of results: (1) Effectiveness evaluation: In this study, for the dose escalation stage, efficacy evaluation and data analysis were performed at the 4th week, 8th week and 12th week after the first day of the 28-days multiple administration stage and then every 8 weeks thereafter. For the dose expansion stage, efficacy evaluation on the group of 3-week administration and then 1-week interruption was performed at the 4th week, 8th week and 12th week after the first day of the 28-days multiple administration stage and then every 8 weeks thereafter; efficacy evaluation on the group of 2-week administration and then 1-week interruption was performed every 6 weeks after the first day of the 28-days multiple administration stage. The indicators of effectiveness include objective response rate (ORR), progression-free survival (PFS), overall survival (OS), disease control rate (DCR), and duration of response (DOR). (2) Safety evaluation: including evaluation of vital signs and physical examinations, electrocardiograms, ECOG PS scores, laboratory tests, adverse events, and the like.

[5] = system: nasopharyngeal squamous cell carcinoma; test: Phase I clinical trial, effectiveness evaluation; format: in vivo, human
Text: as §1, §2, §3, §4, §5

[6] = Phase I clinical trial, safety evaluation; format: in vivo, human; settings: monotherapy, patients with solid tumors
Text: as §1, §2, §3, §4
(§6) 1.3 Assessment of results: (1) Effectiveness evaluation: In this study, for the dose escalation stage, efficacy evaluation and data analysis were performed at the 4th week, 8th week and 12th week after the first day of the 28-days multiple administration stage and then every 8 weeks thereafter. […]

[7] = Solid stability experiment; format: physicochemical; settings: for Crystalline form: XRPD, initial crystalline form I
Procedure: The sample obtained in Example 2 was investigated for physical stability and chemical stability under the conditions of 40° C./75% RH (open) and 60° C. (sealed) for 7 days, and for physical stability under the conditions of room temperature/92.5% RH (open) for 10 days.
Note: the “/” indicates undetected; the crystalline form results were obtained using the X-ray powder diffraction method.

[8] = system: esophageal squamous cell carcinoma; test: Phase I clinical trial, effectiveness evaluation; format: in vivo, human
Text: ORR: the percentage of subjects with complete remission (CR) and partial remission (PR) among all enrolled subjects from the date of the first dose.
DCR: defined as the percentage of subjects with CR, PR, or stable disease (SD) among all enrolled subjects from the date of the first dose.
PR: refers to partial remission, meaning that the sum of the diameters of target lesions has reduced by at least 30% compared to the baseline level.
as §1, §2, §3, §4, §6

[9] = 40° C./75% RH (open) for 7 days
[10] = of 41 patients with esophageal squamous cell carcinoma

Molecule: Maleate
Solubility [1]: 2000 µg/mL
Hygroscopicity [2]: 0.81%
Hygroscopicity (words) [2]: slightly hygroscopic

Molecule: Fumarate
Solubility [1]: 1300 µg/mL
Hygroscopicity [2]: 2.11. %

Molecule: Phosphate
Solubility [1]: 3500 µg/mL
Hygroscopicity [2]: 3.75%

Second part, led by results:

Hygroscopicity [2]: 2.86%
Molecule: Tartrate

Crystalline form I after grinding ([3]; mechanically ground after dropwise addition of organic solvent (methanol, ethanol, acetone, acetonitrile, ethyl acetate, etc.)): not changed
Crystalline form I after grinding ([3]; mechanically ground using a mortar for 2 min): not changed
Crystalline form I after grinding ([3]; mechanically ground using a mortar for 5 min): not changed
Purity [7, 9]: 99.86%
Crystalline form [7, 9]: Not changed
Chemical stability ([7]; 40° C./75% RH and 60° C. for 7 days): good chemical stability
Physical stability of crystalline form I ([7]; 40° C./75% RH, 60° C. for 7 days, 92.5% RH for 10 days): good physical stability
Purity ([7]; 60° C. (sealed) for 7 days): 99.85%
Crystalline form ([7]; 60° C. (sealed) for 7 days): Not changed
Purity ([7]; initial state, 0 day): 99.85%
Crystalline form ([7]; room temperature/92.5% RH (open) for 10 days): Not changed
Hygroscopicity [2]: 0.65%
Hygroscopicity (words) [2]: slightly hygroscopic
Molecule: CNC(=O)c1cccc2cc(Oc3ccnc(NC(=O)c4ccc(N5C[C@@H](C)N[C@@H](C)C5)cc4)c3)ccc12 [Compound B]
Target lesion reduction among SD cases ([4]; 4 SD cases of 5 patients with pulmonary squamous cell carcinoma): all of which showed target lesion reduction
Maximum reduction in the target lesion ([4]; Subject S09009, stage IV, 4 mg QD continuous): 10.7%
Cases achieving SD ([4]; of 5 patients with pulmonary squamous cell carcinoma): 4 cases
Target lesion reduction in SD case ([5]; 1 SD case of 2 patients with nasopharyngeal squamous cell carcinoma): also showed target lesion reduction
Maximum reduction in the target lesion ([5]; Subject S01001, stage IV, 2 mg (dose escalation) QD): 7.9%
Cases achieving SD ([5]; of 2 patients with nasopharyngeal squamous cell carcinoma): 1 case
Common (≥10%) adverse effects [6]: proteinuria, hypertension, hypoalbuminemia, decreased platelet count, decreased leukocyte count, increased alanine aminotransferase, increased aspartate aminotransferase, hyperuricemia, rash, anemia and fatigue
Overall safety [6]: overall safe and controllable
Severity of most adverse effects [6]: grade 2 or below
Solubility in buffer compared to compound A ([1]; Na2HPO4-citric acid buffer (pH 4.6)): better solubility in the buffer compared to compound A
Response as of the latest assessment ([8]; Subject S03008, 6 mg QD continuous, in the 18th treatment cycle): remains in PR
Cases achieving PR [8, 10]: 6 cases
Cases achieving SD [8, 10]: 21 cases
Cases of SD showing target lesion reduction ([8]; of 41 patients with esophageal squamous cell carcinoma (21 SD)): 11 cases
